The source made the active and inactive calls. The calls are words filed in the database; no cut-off is given here.
Legend:
B16-F10 [1] = experiment: Inhibition of Wnt/beta-catenin signaling in mouse B16-F10 cells assessed as reduction in TCF4 expression at 1.25 uM preincubated with rosiglitazone for 24 hrs followed by compound addition and measured after 24 hrs in presence of H2O2; assay type: cell-based
[2] = Drug uptake in human A-375 cells mitochondria at 2.5 uM incubated for 45 mins by mito-tracker green dye based confocal laser scanning fluorescence microscopy analysis; assay type: ADME; conditions: a-375, 0.75 h
B16-F10 [3] = experiment: Antitumor activity against mouse Dil-stained B16-F10 cells inoculated in zebrafish assessed as reduction in tumor growth by measuring tumor fluorescence intensity at 0.31 to 1.25 uM by confocal microscopy analysis; assay type: functional, cell-based; conditions: dose 0.31-1.25 µM
A-375 [4] = experiment: Inhibition of cell metastasis in human A-375 cells assessed as reduction in MMP2 protein level at 0.31 to 1.25 uM after 24 hrs by Western blotting analysis; assay type: functional, cell-based; conditions: dose 0.31-1.25 µM
A-375 [5] = experiment: Antiproliferative activity against human A-375 cells assessed as inhibition of cell growth after 24 to 72 hrs by MTT assay; assay type: functional, cell-based
B16-F10 [6] = experiment: Induction of cell cycle arrest in mouse B16-F10 cells assessed as reduction in cyclin E1 protein level at 0.31 to 1.25 uM after 24 hrs by Western blotting analysis; assay type: functional, cell-based; conditions: dose 0.31-1.25 µM
[7] = Drug uptake in mouse B16-F10 cells assessed as fluorescence intensity at 2.5 uM incubated for 1 hr by confocal laser scanning microscopic analysis; assay type: ADME, cell-based; conditions: b16-f10, 1 h
B16-F10 [8] = experiment: Antitumor activity against mouse B16-F10 cells inoculated in C57BL/6J mouse assessed as reduction in tumor volume at 0.5 to 2 mg/kg, ip administered every other day and measured on day 22; assay type: functional, organism-based; conditions: dose 0.5-2 mg/kg, time 22.0 day
A-375 [9] = experiment: Inhibition of Wnt/beta-catenin signaling in human A-375 cells assessed as reduction in beta-catenin expression at 1.25 uM incubated for 24 hrs; assay type: cell-based
A-375 [10] = experiment: Induction of ROS generation in human A-375 cells assessed as reduction in GPX1 expression level at 0.31 to 1.25 uM incubated for 24 hrs; assay type: functional, cell-based; conditions: dose 0.31-1.25 µM
A-375 [11] = experiment: Inhibition of colony formation in human A-375 cells at less than 0.63 uM by crystal violet staining based assay; assay type: functional, cell-based
A-375 [12] = experiment: Inhibition of ROS generation in human A-375 cells at 1.25 uM preincubated with rosiglitazone for 2 hrs followed by wash out and compound addition for 1 hr by DCFH-DA staining based inverted fluorescence microscopic analysis; assay type: functional; set-up: scale not given: the % may be the effect or the level left
B16-F10 [13] = experiment: Inhibition of tumor metastasis in mouse B16-F10 cells assessed as reduction in wound healing after 24 hrs; assay type: functional, cell-based; conditions: dose 0.08-1.25 µM
B16-F10 [14] = experiment: Inhibition of ROS generation in mouse B16-F10 cells at 1.25 uM preincubated with rosiglitazone for 2 hrs followed by wash out and compound addition for 1 hr by DCFH-DA staining based inverted fluorescence microscopic analysis; assay type: functional; set-up: scale not given: the % may be the effect or the level left
[15] = Drug uptake in mouse B16-F10 cells implanted in C57BL/6J mouse assessed as fluorescence aggregation in tumor at 3 mg/kg, iv measured after 3 to 6 hrs; assay type: ADME, organism-based; conditions: in vivo, time 3-6 hrs
B16-F10 [16] = experiment: Induction of mitochondrial damage in mouse B16-F10 cells assessed as mitochondrial vacuolation at 2.5 uM incubated for 24 hrs by TEM analysis; assay type: functional, cell-based
B16-F10 [17] = experiment: Inhibition of cell metastasis in mouse B16-F10 cells assessed as reduction in MMP2 protein level at 0.31 to 1.25 uM after 24 hrs by Western blotting analysis; assay type: functional, cell-based; conditions: dose 0.31-1.25 µM
[18] = Toxicity in C57BL/6J mouse inoculated with mouse B16-F10 cells assessed as effect on kidney morphology at 2 mg/kg, ip administered every other day for 22 days by H and E staining based assay; assay type: organism-based; conditions: in vivo, 528 h, time 22 day
B16-F10 [19] = experiment: Induction of cell cycle arrest in mouse B16-F10 cells assessed as reduction in Cdk2 protein level at 0.31 to 1.25 uM after 24 hrs by Western blotting analysis; assay type: functional, cell-based; conditions: dose 0.31-1.25 µM
[20] = Renal toxicity in C57BL/6J mouse inoculated with mouse B16-F10 cells assessed as change in CREA level at 2 mg/kg, ip administered every other day for 22 days; assay type: organism-based; conditions: in vivo, 528 h, time 22 day
[21] = Toxicity in C57BL/6J mouse inoculated with mouse B16-F10 cells assessed as reduction in body weight at 2 mg/kg, ip administered every other day and measured after 16 days; assay type: organism-based; conditions: in vivo, 384 h, time 16 day
A-375 [22] = experiment: Induction of ROS generation in human A-375 cells assessed as reduction in PPARgamma expression level at 1.25 uM incubated for 24 hrs; assay type: functional, cell-based
B16-F10 [23] = experiment: Induction of mitochondrial damage in mouse B16-F10 cells assessed as change in mitochondrial morphology at 2.5 uM incubated for 24 hrs by TEM analysis; assay type: functional, cell-based
B16-F10 [24] = experiment: Induction of cell cycle arrest in mouse B16-F10 cells assessed as P21 protein accumulation at 0.31 to 1.25 uM after 24 hrs by Western blotting analysis; assay type: functional, cell-based; conditions: dose 0.31-1.25 µM
[25] = Toxicity in mouse inoculated with mouse B16-F10 cells assessed as change in body weight at 2 mg/kg, ip administered every other day and measured on day 18; assay type: organism-based; conditions: in vivo, 432 h, time 18 day
B16-F10 [26] = experiment: Antitumor activity against mouse B16-F10 cells inoculated in mouse assessed as increase in E-cadherin expression at 2 mg/kg, ip administered every other day and measured on day 18 by immunohistochemistry analysis; assay type: functional, organism-based; conditions: time 18.0 day
A-375 [27] = experiment: Induction of ROS generation in human A-375 cells assessed as reduction in GPX1 expression level at 1.25 uM preincubated with rosiglitazone for 24 hrs followed by compound addition for 24 hrs; assay type: functional, cell-based
A-375 [28] = experiment: Inhibition of ROS generation in human A-375 cells preincubated with rosiglitazone for 2 hrs followed by wash out and compound addition for 1 hr by DCFH-DA staining based inverted fluorescence microscopic analysis; assay type: functional, cell-based
[29] = Cytotoxicity against mouse B16-F10 cells assessed as cell viability at 40 uM incubated for 24 hrs by MTT assay; assay type: toxicity, cell-based; conditions: read-out: Activity
B16-F10 [30] = experiment: Antiproliferative activity against mouse B16-F10 cells assessed as inhibition of cell growth at 0.31 uM after 72 hrs by MTT assay; assay type: functional; set-up: scale not given: the % may be the effect or the level left
B16-F10 [31] = experiment: Antitumor activity against mouse B16-F10 cells inoculated in C57BL/6J mouse assessed as reduction in PPARgamma expression at 0.5 to 2 mg/kg, ip administered every other day and measured on day 22 by immunohistochemistry analysis; assay type: functional, organism-based; conditions: dose 0.5-2 mg/kg, time 22.0 day
B16-F10 [32] = experiment: Induction of mitochondrial damage in mouse B16-F10 cells assessed as increase in ROS production measured upto 120 mins by DCFH-DA staining based flow cytometry analysis; assay type: functional, cell-based; conditions: dose 0.16-2.5 µM
[33] = Drug uptake in human A-375 cells assessed as fluorescence intensity at 2.5 uM incubated for 1 hr by confocal laser scanning microscopic analysis; assay type: ADME, cell-based; conditions: a-375, 1 h
B16-F10 [34] = experiment: Induction of ROS generation in mouse B16-F10 cells assessed as reduction in PPARgamma expression level at 1.25 uM incubated for 24 hrs; assay type: functional, cell-based
[35] = Drug uptake in mouse B16-F10 cells mitochondria at 2.5 uM incubated for 25 mins by mito-tracker green dye based confocal laser scanning fluorescence microscopy analysis; assay type: ADME; conditions: b16-f10, 25 min

Drug uptake [2]: Active | IC50 (A-375 [5]): 180 nM | Drug uptake [7]: Active | Drug uptake [15]: Active | Drug uptake [33]: Active | Drug uptake [35]: Active
Compound: CC[N+]1=C(/C=C/C2=C(Cl)C(=C/C=C3\N(CCCCCC(=O)O/C(=N/C4CCCCC4)NC4CCCCC4)c4ccccc4C3(C)C)/CCC2)C(C)(C)c2ccccc21.[Br-]
Activity (B16-F10 [1]): inactive | Activity (B16-F10 [3]): Active | inhibition (A-375 [4]): Active | Activity (A-375 [5]; time 24-72 hrs): Dose-Dependent Effect | Activity (B16-F10 [6]): Active | Activity (B16-F10 [8]): Active | inhibition (A-375 [9]): Active | Activity (A-375 [10]): Active | inhibition (A-375 [11]): Active | Activity (A-375 [12]): >50% | inhibition (B16-F10 [13]): Dose-Dependent Effect | Activity (B16-F10 [14]): >50% | Activity (B16-F10 [16]): Active | inhibition (B16-F10 [17]): Active | Activity [18]: Non-Toxic | Activity (B16-F10 [19]): Active | Activity [20]: Non-Toxic | Activity [21]: Non-Toxic | Activity (A-375 [22]): Active | Activity (B16-F10 [23]): Active | Activity (B16-F10 [24]): Active | Activity [25]: Non-Toxic | Activity (B16-F10 [26]): Active | Activity (A-375 [27]): inactive | Activity (A-375 [28]): Dose-Dependent Effect | viability at 24 h, 40 µM [29]: 90% | Activity (B16-F10 [30]): 70% | Activity (B16-F10 [31]): Active | Activity (B16-F10 [32]): Dose-Dependent Effect | Activity (B16-F10 [34]): Active

Reference: ChEMBL document CHEMBL5620390, “A novel multifunctional mitochondrion-targeting NIR fluorophore probe inhibits tumour proliferation and metastasis through the PPARγ/ROS/β-catenin pathway” (Eur J Med Chem, 2023)
